Experimental data as given in patent USRE48097E1, “Cephem compounds, their production and use” (priority 2015, dated 2020).
Values after ≈ are worked out from the molar mass of the structure shown. Where two headings read alike, the source gives them in different places.

Tests used:
K. pneumoniae 4106 = experiment: MIC against K. pneumoniae 4106; type: cell-based; conditions: K. pneumoniae 4106, KPC-3, TEM-1, SHV-12, SHV-141
Description: (§1) As shown, the foregoing composition was tested for minimum inhibitory concentration (MIC, μg/mL) against bacteria listed in Tables 2-3.

K. pneumoniae 4107 = experiment: MIC against K. pneumoniae 4107; type: cell-based; conditions: K. pneumoniae 4107, KPC-2, TEM-1, SHV-11
Description: as §1

E. cloacae 2710 = experiment: MIC against E. cloacae 2710; type: cell-based; conditions: Table 3, E. cloacae 2710, KPC-3, VIM-1
Description: as §1

E. cloacae 2044 = experiment: MIC against E. cloacae 2044; type: cell-based; conditions: Table 2, E. cloacae 2044, Caz S, IMP S
Procedure, shortened: (§2)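 Read-out is the MIC, expressed in μg/mL, for each cephem tested on its own or together with one or more β-lactamase inhibitors.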

K. pneumoniae 2711 = experiment: MIC against K. pneumoniae 2711; type: cell-based; conditions: Table 3, K. pneumoniae 2711, KPC-3, VIM-1
Description: as §1

K. pneumoniae 2690 = experiment: MIC against K. pneumoniae 2690; type: cell-based; conditions: Table 3, K. pneumoniae 2690, KPC-2
Description: as §1

[1] = test system: S. pneumoniae ATCC 700673; experiment: MIC against S. pneumoniae ATCC 700673; type: cell-based; conditions: Table 2, S. pneumoniae ATCC 700673, Pen R
Procedure, shortened: as §2

K. pneumoniae 2689 = experiment: MIC against K. pneumoniae 2689; type: cell-based; conditions: K. pneumoniae 2689, KPC-2
Description: as §1

E. cloacae 2689 = experiment: MIC against E. cloacae 2689; type: cell-based; conditions: Table 3, E. cloacae 2689, KPC-2
Description: as §1

C. freundii 579 = experiment: MIC against C. freundii 579; type: cell-based; conditions: Table 2, C. freundii 579, Caz R, IMP S
Procedure, shortened: as §2

E. cloacae 2704 = experiment: MIC against E. cloacae 2704; type: cell-based; conditions: Table 2, E. cloacae 2704, P99
Procedure, shortened: as §2

S. pneumoniae 2405 = experiment: MIC against S. pneumoniae 2405; type: cell-based; conditions: Table 2, S. pneumoniae 2405, Pen S
Procedure, shortened: as §2

S. pneumoniae 2403 = experiment: MIC against S. pneumoniae 2403; type: cell-based; conditions: Table 2, S. pneumoniae 2403, Pen S
Procedure, shortened: as §2

E. coli 4102 = experiment: MIC against E. coli 4102; type: cell-based; conditions: Table 2, E. coli 4102, CTX-M-14
Procedure, shortened: as §2

S. pneumoniae 2406 = experiment: MIC against S. pneumoniae 2406; type: cell-based; conditions: Table 2, S. pneumoniae 2406, Pen S
Procedure, shortened: as §2

E. cloacae 566 = experiment: MIC against E. cloacae 566; type: cell-based; conditions: Table 2, E. cloacae 566, Caz R, IMP S
Procedure, shortened: as §2

E. coli 4080 = experiment: MIC against E. coli 4080; type: cell-based; conditions: Table 2, E. coli 4080, TEM-10
Procedure, shortened: as §2

K. pneumoniae 2697 = experiment: MIC against K. pneumoniae 2697; type: cell-based; conditions: Table 2, K. pneumoniae 2697, IMP-4
Procedure, shortened: as §2

E. cloacae 2705 = experiment: MIC against E. cloacae 2705; type: cell-based; conditions: Table 3, E. cloacae 2705, VIM-1, KPC-3type
Description: as §1

C. freundii 2487 = experiment: MIC against C. freundii 2487; type: cell-based; conditions: Table 2, C. freundii 2487, Caz R, IMP S
Procedure, shortened: as §2

S. aureus3137 = experiment: MIC against S. aureus3137; type: cell-based, S. aureus; conditions: Table 2, S. aureus3137, MSSA
Procedure, shortened: as §2

S. aureus 3147 = experiment: MIC against S. aureus 3147; type: cell-based; conditions: Table 2, S. aureus 3147, MSSA
Procedure, shortened: as §2

C. freundii 15 = experiment: MIC against C. freundii 15; type: cell-based; conditions: Table 2, C. freundii 15, Caz R, IMP S
Procedure, shortened: as §2

[2] = Table 2, in combination with NXL-104
[3] = Table 3, in combination with NXL-104
[4] = Enterobacter cloacae, alone, read-out: MIC
[5] = Klebsiella pneumoniae, alone, read-out: MIC
[6] = Citrobacter freundii, alone, read-out: MIC
[7] = Streptococcus pneumoniae, alone, read-out: MIC
[8] = Escherichia coli, alone, read-out: MIC
[9] = Staphylococcus aureus, alone, read-out: MIC

## CC(C)(O/N=C(\C(=O)N[C@@H]1C(=O)N2C(C(=O)[O-])=C(C[n+]3ccc4c(ccn4Cc4cc(C(=N)N)co4)c3)CS[C@H]12)c1csc(N)n1)C(=O)O [Example 6, (6R,7R)-7-{[(2Z)-2-(2-Amino-1,3-thiazol-4-yl)-2-{[(2-carboxypropan-2-yl)oxy]imino}acetyl]amino}-3-({1-[(4-carbamimidoylfuran-2-yl)methyl]-1H-pyrrolo[3,2-c]pyridin-5-ium-5-yl}methyl)-8-oxo-5-thia-1-azabicyclo[4.2.0]oct-2-ene-2-carboxylate]
K. pneumoniae 4106; Klebsiella pneumoniae, 4106, Table 2, alone, read-out: MIC
  MIC: 16 µg/mL (≈ 22.6 µM)
K. pneumoniae 4106; Klebsiella pneumoniae, 4106, Table 3, alone, read-out: MIC
  MIC: 32 µg/mL (≈ 45.2 µM)
K. pneumoniae 4106; [2]
  MIC: 1.00 µg/mL
K. pneumoniae 4106; [3]
  MIC: 2 µg/mL
K. pneumoniae 4107; Klebsiella pneumoniae, 4107, Table 2, alone, read-out: MIC
  MIC: 32 µg/mL (≈ 45.2 µM)
K. pneumoniae 4107; Klebsiella pneumoniae, 4107, Table 3, alone, read-out: MIC
  MIC: 16 µg/mL (≈ 22.6 µM)
K. pneumoniae 4107; [2]
  MIC: 2.00 µg/mL
K. pneumoniae 4107; [3]
  MIC: 1 µg/mL
E. cloacae 2710; [4]
  MIC: > 32 µg/mL
E. cloacae 2710; in combination with NXL-104
  MIC: >32 µg/mL
E. cloacae 2044; [4]
  MIC: 0.12 µg/mL
E. cloacae 2044; in combination with NXL-104
  MIC: ≤0.06 µg/mL
K. pneumoniae 2711; [5]
  MIC: 4 µg/mL (≈ 5.65 µM)
K. pneumoniae 2711; in combination with NXL-104
  MIC: 0.5 µg/mL
K. pneumoniae 2690; [5]
  MIC: 16 µg/mL (≈ 22.6 µM)
K. pneumoniae 2690; in combination with NXL-104
  MIC: 1 µg/mL
[1]; Streptococcus pneumoniae, ATCC700673, alone, read-out: MIC
  MIC: 2 µg/mL
[1]; in combination with NXL-104
  MIC: 2.00 µg/mL
K. pneumoniae 2689; Klebsiella pneumoniae, 2689, Table 2, alone, read-out: MIC
  MIC: 16 µg/mL (≈ 22.6 µM)
K. pneumoniae 2689; Klebsiella pneumoniae, 2689, Table 3, alone, read-out: MIC
  MIC: 16 µg/mL (≈ 22.6 µM)
K. pneumoniae 2689; [2]
  MIC: 1.00 µg/mL
K. pneumoniae 2689; [3]
  MIC: 1 µg/mL
E. cloacae 2689; [4]
  MIC: 16 µg/mL (≈ 22.6 µM)
E. cloacae 2689; in combination with NXL-104
  MIC: 1 µg/mL
C. freundii 579; [6]
  MIC: 2 µg/mL
C. freundii 579; in combination with NXL-104
  MIC: 0.25 µg/mL
E. cloacae 2704; [4]
  MIC: 32 µg/mL
E. cloacae 2704; in combination with NXL-104
  MIC: 1.00 µg/mL
S. pneumoniae 2405; [7]
  MIC: ≤ 0.06 µg/mL
S. pneumoniae 2405; in combination with NXL-104
  MIC: ≤0.06 µg/mL
S. pneumoniae 2403; [7]
  MIC: ≤ 0.06 µg/mL
S. pneumoniae 2403; in combination with NXL-104
  MIC: ≤0.06 µg/mL
E. coli 4102; [8]
  MIC: 2 µg/mL
E. coli 4102; in combination with NXL-104
  MIC: 0.12 µg/mL
S. pneumoniae 2406; [7]
  MIC: ≤ 0.06 µg/mL
S. pneumoniae 2406; in combination with NXL-104
  MIC: ≤0.06 µg/mL
E. cloacae 566; [4]
  MIC: 4 µg/mL
E. cloacae 566; in combination with NXL-104
  MIC: 0.50 µg/mL
E. coli 4080; [8]
  MIC: 16 µg/mL
E. coli 4080; in combination with NXL-104
  MIC: 0.50 µg/mL
K. pneumoniae 2697; [5]
  MIC: 16 µg/mL
K. pneumoniae 2697; in combination with NXL-104
  MIC: 0.50 µg/mL
E. cloacae 2705; [4]
  MIC: > 32 µg/mL
E. cloacae 2705; in combination with NXL-104
  MIC: >32 µg/mL
C. freundii 2487; [6]
  MIC: 8 µg/mL
C. freundii 2487; in combination with NXL-104
  MIC: 1.00 µg/mL
S. aureus3137; [9]
  MIC: 32 µg/mL
S. aureus3137; in combination with NXL-104
  MIC: 8.00 µg/mL
S. aureus 3147; [9]
  MIC: 4 µg/mL
S. aureus 3147; in combination with NXL-104
  MIC: 4.00 µg/mL
C. freundii 15; [6]
  MIC: 8 µg/mL
C. freundii 15; in combination with NXL-104
  MIC: 0.50 µg/mL
